Measurements taken from US20240307382A1, “MODULATORS OF THE INTEGRATED STRESS PATHWAY” (Calico Life Sciences LLC, priority 2017, published 2024).

These compounds were tested on HEK293T cells carrying the ATF4 luciferase reporter (assay: ATF4-Luc assay (ATF4 luciferase reporter, tunicamycin-treated cells)). Conditions: Homo sapiens, HEK-293T, 1 μg/mL tunicamycin, 7 hours.
Assay type: cell-based
Summary of the method: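 A stable HEK293T reporter line was made by placing the full-length human ATF4 5′-UTR ahead of a firefly luciferase sequence without its start methionine, delivered by retroviral transduction and puromycin selection. Cells were seeded at 30,000 per well in polylysine-coated 384-well plates, exposed next day to 1 μg/mL tunicamycin plus compound for 7 hours, and luminescence was read with One Glo.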

Q: For `O=C(COc1ccc(Cl)c(F)c1)NC12CCC(NC(=O)c3cccnc3CO)(CC1)C[C@@H]2O` [Compound 1086, N-{(3S)-4-[2-(4-chloro-3-fluorophenoxy)acetamido]-3-hydroxybicyclo[2.2.2]octan-1-yl}-2-(hydroxymethyl)pyridine-3-carboxamide], which EC50 is on record?
A: > 2 µM

Q: `O=C(COc1ccc(OC(F)(F)F)cc1)NC12CCC(NC(=O)c3cccnc3CO)(CC1)C[C@@H]2O` [Compound 1087, 2-(hydroxymethyl)-N-[(3S)-3-hydroxy-4-{2-[4-(trifluoromethoxy)phenoxy]acetamido}bicyclo[2.2.2]octan-1-yl]pyridine-3-carboxamide] was tested. Which EC50 did it give?
A: > 2 µM

Q: How did the EC50 turn out when `CN(C)C(=O)c1cccnc1C(=O)NC12CC(NC(=O)COc3ccc(Cl)c(F)c3)(C1)C2` [Compound 1088, N^2-{3-[2-(4-chloro-3-fluorophenoxy)acetamido]bicyclo[1.1.1]pentan-1-yl}-N^3,N^3-dimethylpyridine-2,3-dicarboxamide] was run?
A: 1 to 2 µM

Q: With `O=C(COc1ccc(Cl)c(F)c1)NC12CC(NC(=O)c3ccc(Cl)c(O)c3)(C1)C2` [Compound 1089, 4-chloro-N-{3-[2-(4-chloro-3-fluorophenoxy)acetamido]bicyclo[1.1.1]pentan-1-yl}-3-hydroxybenzamide] as the compound, how does the EC50 read?
A: 0.05 to 0.25 µM

Q: For `COCc1ccc(C(=O)NC23CC(NC(=O)COc4ccc(Cl)c(F)c4)(C2)C3)cn1` [Compound 1090, N-{3-[2-(4-chloro-3-fluorophenoxy)acetamido]bicyclo[1.1.1]pentan-1-yl}-6-(methoxymethyl)pyridine-3-carboxamide], which EC50 is on record?
A: 0.25 to 1 µM

Q: `O=C(COc1ccc(Cl)c(F)c1)NC12CC(NC(=O)c3ncccc3CO)(C1)C2` [Compound 1091, N-{3-[2-(4-chloro-3-fluorophenoxy)acetamido]bicyclo[1.1.1]pentan-1-yl}-3-(hydroxymethyl)pyridine-2-carboxamide] was tested. Which EC50 did it give?
A: 0.25 to 1 µM

Q: With `COc1cccnc1C(=O)NC12CC(NC(=O)COc3ccc(Cl)c(F)c3)(C1)C2` [Compound 1092, N-{3-[2-(4-chloro-3-fluorophenoxy)acetamido]bicyclo[1.1.1]pentan-1-yl}-3-methoxypyridine-2-carboxamide] as the compound, how does the EC50 read?
A: > 2 µM

Q: `O=C(COc1ccc(Cl)c(F)c1)NC12CC(NC(=O)c3ccc4c(n3)CCCC4)(C1)C2` [Compound 1093, N-{3-[2-(4-chloro-3-fluorophenoxy)acetamido]bicyclo[1.1.1]pentan-1-yl]-5,6,7,8-tetrahydroquinoline-2-carboxamide] was tested. Which EC50 did it give?
A: 0.05 to 0.25 µM

Q: With `O=C(COc1ccc(C(F)(F)F)cc1)NC12CCC(NC(=O)c3cc(C(F)F)no3)(CC1)C[C@@H]2O` [Compound 1094, 3-(difluoromethyl)-N-[(3S)-3-hydroxy-4-{2-[4-(trifluoromethyl)phenoxy]acetamido}bicyclo[2.2.2]octan-1-yl]-1,2-oxazole-5-carboxamide] as the compound, how does the EC50 read?
A: 0.05 to 0.25 µM

Q: Which EC50 does the source give for `O=C(COc1ccc2c(c1)OC(F)(F)O2)NC12CCC(NC(=O)c3cc(C(F)F)no3)(CC1)C[C@@H]2O` [Compound 1095, N-[(3S)-4-{2-[(2,2-difluoro-2H-1,3-benzodioxol-5-yl)oxy]acetamido}-3-hydroxybicyclo[2.2.2]octan-1-yl]-3-(difluoromethyl)-1,2-oxazole-5-carboxamide] here?
A: 0.05 to 0.25 µM

Q: For `O=C(COc1ccc(Cl)c(C(F)(F)F)c1)NC12CCC(NC(=O)c3cc(C(F)F)no3)(CC1)C[C@@H]2O` [Compound 1096, N-[(3S)-4-{2-[4-chloro-3-(trifluoromethyl)phenoxy]acetamido}-3-hydroxybicyclo[2.2.2]octan-1-yl]-3-(difluoromethyl)-1,2-oxazole-5-carboxamide], which EC50 is on record?
A: < 0.05 µM

Q: For `Cc1ccc(OCC(=O)NC23CCC(NC(=O)c4cc(C(F)F)no4)(CC2)C[C@@H]3O)cc1C` [Compound 1097, 3-(difluoromethyl)-N-{(3S)-4-[2-(3,4-dimethylphenoxy)acetamido]-3-hydroxybicyclo[2.2.2]octan-1-yl}-1,2-oxazole-5-carboxamide], which EC50 is on record?
A: 0.05 to 0.25 µM

Q: For `Cc1ccc(OCC(=O)NC23CCC(NC(=O)c4cc(C(F)F)no4)(CC2)C[C@@H]3O)cc1` [Compound 1098, 3-(difluoromethyl)-N-{(3S)-3-hydroxy-4-[2-(4-methylphenoxy)acetamido]bicyclo[2.2.2]octan-1-yl}-1,2-oxazole-5-carboxamide], which EC50 is on record?
A: 0.05 to 0.25 µM

Q: How did the EC50 turn out when `O=C(COc1ccc(F)cc1)NC12CCC(NC(=O)c3cc(C(F)F)no3)(CC1)C[C@@H]2O` [Compound 1099, 3-(difluoromethyl)-N-{(3S)-4-[2-(4-fluorophenoxy)acetamido]-3-hydroxybicyclo[2.2.2]octan-1-yl}-1,2-oxazole-5-carboxamide] was run?
A: 0.05 to 0.25 µM

Q: `O=C(COc1ccc(F)c(F)c1)NC12CCC(NC(=O)c3cc(C(F)F)no3)(CC1)C[C@@H]2O` [Compound 1100, 3-(difluoromethyl)-N-{(3S)-4-[2-(3,4-difluorophenoxy)acetamido]-3-hydroxybicyclo[2.2.2]octan-1-yl}-1,2-oxazole-5-carboxamide] was tested. Which EC50 did it give?
A: 0.05 to 0.25 µM

Q: Which EC50 does the source give for `Cc1cc(OCC(=O)NC23CCC(NC(=O)c4cc(C(F)F)no4)(CC2)C[C@@H]3O)ccc1Cl` [Compound 1101, N-{(3S)-4-[2-(4-chloro-3-methylphenoxy)acetamido]-3-hydroxybicyclo[2.2.2]octan-1-yl}-3-(difluoromethyl)-1,2-oxazole-5-carboxamide] here?
A: < 0.05 µM

Q: Which EC50 does the source give for `O=C(COc1ccc(Cl)cc1)NC12CCC(NC(=O)c3cc(C(F)F)no3)(CC1)C[C@@H]2O` [Compound 1102, N-{(3S)4-[2-(4-chlorophenoxy)acetamido]-3-hydroxybicyclo[2.2.2]octan-1-yl}-3-(difluoromethyl)-1,2-oxazole-5-carboxamide] here?
A: < 0.05 µM

Q: How did the EC50 turn out when `O=C(COc1ccc(Cl)c(Cl)c1)NC12CCC(NC(=O)c3cnc(C(F)F)o3)(CC1)C[C@@H]2O` [Compound 1103, N-{(3S)-4-[2-(3,4-dichlorophenoxy)acetamido]-3-hydroxybicyclo[2.2.2]octan-1-yl}-2-(difluoromethyl)-1,3-oxazole-5-carboxamide] was run?
A: < 0.05 µM

Q: How did the EC50 turn out when `O=C(COc1ccc(Cl)c(F)c1)NC12CCC(NC(=O)c3cnc(C(F)F)o3)(CC1)C[C@@H]2O` [Compound 1104, N-{(3S)-4-[2-(4-chloro-3-fluorophenoxy)acetamido]-3-hydroxybicyclo[2.2.2]octan-1-yl}-2-(difluoromethyl)-1,3-oxazole-5-carboxamide] was run?
A: < 0.05 µM

Q: Which EC50 does the source give for `O=C(COc1ccc(Cl)c(F)c1)NC12CCC(NC(=O)c3cc(CO)ccn3)(CC1)[C@@H](O)C2` [Compound 1105, N-{(2S)-4-[2-(4-chloro-3-fluorophenoxy)acetamido]-2-hydroxybicyclo[2.2.2]octan-1-yl}-4-(hydroxymethyl)pyridine-2-carboxamide] here?
A: < 0.05 µM

Q: `CCc1ncc(C(=O)NC23CCC(NC(=O)COc4ccc(Cl)c(F)c4)(CC2)C[C@@H]3O)o1` [Compound 1106, N-{(2S)-4-[2-(4-chloro-3-fluorophenoxy)acetamido]-2-hydroxybicyclo[2.2.2]octan-1-yl}-2-ethyl-1,3-oxazole-5-carboxamide] was tested. Which EC50 did it give?
A: < 0.05 µM

Q: `Cc1nn(C)cc1C(=O)NC12CCC(NC(=O)COc3ccc(Cl)c(F)c3)(CC1)C[C@@H]2O` [Compound 1107, N-{(2S)-4-[2-(4-chloro-3-fluorophenoxy)acetamido]-2-hydroxybicyclo[2.2.2]octan-1-yl}-1,3-dimethyl-1H-pyrazole-4-carboxamide] was tested. Which EC50 did it give?
A: > 2 µM

Q: How did the EC50 turn out when `Cc1nn(C)cc1C(=O)NC12CCC(NC(=O)COc3ccc(Cl)c(F)c3)(CC1)[C@@H](O)C2` [Compound 1108, N-{(3S)-4-[2-(4-chloro-3-fluorophenoxy)acetamido]-3-hydroxybicyclo[2.2.2]octan-1-yl}-1,3-dimethyl-1H-pyrazole-4-carboxamide] was run?
A: 0.05 to 0.25 µM

Q: For `O=C(COc1ccc(Cl)c(F)c1)NC12CCC(NC(=O)c3cc4cc(Cl)ccc4o3)(CC1)[C@@H](O)C2` [Compound 1109, 5-chloro-N-{(2S)-4-[2-(4-chloro-3-fluorophenoxy)acetamido]-2-hydroxybicyclo[2.2.2]octan-1-yl}-1-benzofuran-2-carboxamide], which EC50 is on record?
A: < 0.05 µM
